How the values were obtained:
barnyardgrass [1] = test: Test A preemergence; assay type: in vivo, Echinochloa crus-galli; conditions: 0 to 100 scale where 0 is no effect and 100 is complete control
In short: (§1)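 Visual injury scored 0–100 (100 = complete control) against untreated controls about 10 days after treatment in a greenhouse. Test chemicals, formulated with surfactant in non-phytotoxic solvent, were sprayed on soil preemergence or on 2-10 cm, one- to two-leaf plants postemergence.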

yellow nutsedge = test: Test C postemergence; assay type: in vivo, Cyperus esculentus; conditions: for Plant response rating, Nutsedge, Yellow: scale 0 to 100 (0 no effect, 100 complete control)
In short: (§2)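 Visual injury score versus untreated controls, 0 = no effect, 100 = complete control, taken 13 to 15 days after treatment in the greenhouse. Pre-emergence pots held loam/sand; post-emergence plants grew in sphagnum peat/vermiculite mix and were sprayed at the 1- to 4-leaf stage.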

Italian ryegrass = test: Test C postemergence; assay type: in vivo, Lolium multiflorum; conditions: for Plant response rating, Ryegrass, Italian: scale 0 to 100 (0 no effect, 100 complete control)
In short: as §2

ragweed = test: Test C postemergence; assay type: in vivo, Ambrosia elatior; conditions: for Plant response rating, Ragweed: scale 0 to 100 (0 no effect, 100 complete control)
In short: as §2

galium = test: Test C postemergence; assay type: in vivo, Galium aparine; conditions: for Plant response rating, Galium: scale 0 to 100 (0 no effect, 100 complete control)
In short: as §2

lambsquarters = test: Test C postemergence; assay type: in vivo, Chenopodium album; conditions: for Plant response rating, Lambsquarters: scale 0 to 100 (0 no effect, 100 complete control)
In short: as §2

sedge, umbrella = test: Test B flooded paddy test; assay type: in vivo, Cyperus difformis; conditions: Flood, 250 g ai/ha; 0 to 100 scale where 0 is no effect and 100 is complete control
In short: (§3)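 2-leaf stage plants; pots flooded to 3 cm, compound added to paddy water, depth maintained. Greenhouse 13–15 d. Visual rating vs untreated controls, 0 (no effect) to 100 (complete control); dash = no result.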

barnyardgrass [2] = test: Test C postemergence; assay type: in vivo, Echinochloa crus-galli; conditions: for Plant response rating, Barnyardgrass: scale 0 to 100 (0 no effect, 100 complete control)
In short: as §2

blackgrass = test: Test C postemergence; assay type: in vivo, Alopecurus myosuroides; conditions: for Plant response rating, Blackgrass: scale 0 to 100 (0 no effect, 100 complete control)
In short: as §2

large (Lg) crabgrass = test: Test C postemergence; assay type: in vivo, Digitaria sanguinalis; conditions: for Plant response rating, Crabgrass, Large: scale 0 to 100 (0 no effect, 100 complete control)
In short: as §2

pigweed = test: Test A postemergence; assay type: in vivo, Amaranthus retroflexus
In short: as §1

soybean = test: Test C postemergence; assay type: in vivo, Glycine max; conditions: for Plant response rating, Soybean: scale 0 to 100 (0 no effect, 100 complete control)
In short: as §2

rice = test: Test B flooded paddy test; assay type: in vivo, Oryza sativa; conditions: Flood, 250 g ai/ha; 0 to 100 scale where 0 is no effect and 100 is complete control
In short: as §3

[3] = 16 g ai/ha, postemergence, 0 is no effect, 100 is complete control
[4] = 125 g ai/ha, postemergence, visual rating
[5] = Postemergence, 31 g ai/ha, 13 to 15 days

Q: What does the source list for `N#Cc1cnn(-c2c(Br)cccc2Oc2ncc(Cl)cn2)c1` [Compound 140]?
A: Plant response rating, Barnyardgrass (barnyardgrass [1]; 31 g ai/ha, visual, approximately 10 days): 30; Plant response rating, Barnyardgrass (barnyardgrass [1]; 125 g ai/ha): 70; Plant response rating (0 to 100), Nutsedge, Yellow (yellow nutsedge; [3]): 0; Plant response rating, Nutsedge, Yellow (yellow nutsedge; [4]): 5; Plant response rating, Nutsedge, Yellow (yellow nutsedge; Postemergence, 62 g ai/ha): 5; Plant response rating (0 to 100), Ryegrass, Italian (Italian ryegrass; [3]): 0; Plant response rating, Ryegrass, Italian (Italian ryegrass; [4]): 0; Plant response rating, Ryegrass, Italian (Italian ryegrass; Postemergence, 62 g ai/ha): 0; Plant response rating (0 to 100), Ragweed (ragweed; [3]): 25; Plant response rating, Ragweed (ragweed; [4]): 75; Plant response rating, Ragweed (ragweed; Postemergence, 62 g ai/ha): 60; Plant response rating (0 to 100), Galium (galium; [3]): 50; Plant response rating, Galium (galium; [4]): 95; Plant response rating, Galium (galium; Postemergence, 62 g ai/ha): 90; Plant response rating (0 to 100), Lambsquarters (lambsquarters; [3]): 35; Plant response rating, Lambsquarters (lambsquarters; [4]): 85; Plant response rating, Lambsquarters (lambsquarters; Postemergence, 62 g ai/ha): 80; Plant response rating, Sedge, Umbrella (sedge, umbrella): 80; Plant response rating (0 to 100), Barnyardgrass (barnyardgrass [2]; [3]): 5; Plant response rating, Barnyardgrass (barnyardgrass [2]; [4]): 10; Plant response rating, Barnyardgrass (barnyardgrass [2]; [5]): 10; Plant response rating, Barnyardgrass (barnyardgrass [2]; Postemergence, 62 g ai/ha): 10; Plant response rating (0 to 100), Blackgrass (blackgrass; [3]): 0; Plant response rating, Blackgrass (blackgrass; [4]): 5; Plant response rating, Blackgrass (blackgrass; [5]): 0; Plant response rating, Blackgrass (blackgrass; Postemergence, 62 g ai/ha): 0; Plant response rating (0 to 100), Crabgrass, Large (large (Lg) crabgrass; [3]): 10; Plant response rating, Crabgrass, Large (large (Lg) crabgrass; [4]): 20; Plant response rating, Crabgrass, Large (large (Lg) crabgrass; Postemergence, 62 g ai/ha): 15; Plant response rating, Pigweed (pigweed; 31 g ai/ha, 0 to 100 scale, 0 no effect, 100 complete control): 90; Pigweed plant response rating (pigweed; 125 g ai/ha, 0 to 100 scale where 0 is no effect and 100 is complete control): 100; Plant response rating (0 to 100), Soybean (soybean; [3]): 25; Plant response rating, Soybean (soybean; [4]): 75; Plant response rating, Soybean (soybean; Postemergence, 62 g ai/ha): 65; Plant response rating, Rice (rice): 0

Source: patent US9695155B2, “Herbicidal substituted pyrimidinyloxy benzene compounds” (E. I. DU PONT DE NEMOURS AND COMPANY, priority 2013, dated 2017)
